Laboratory results: ChEMBL document CHEMBL1150786, “Relationship of blood level and susceptibility in voriconazole treatment of histoplasmosis” (2007)
Converted amounts (≈) assume the structure as drawn.

Assays:
[1] = system: Histoplasma capsulatum; experiment: Antimicrobial activity against Histoplasma capsulatum isolates form AIDS patient with primary histoplasmosis by modified CLSI method; assay type: functional
[2] = system: Histoplasma capsulatum; experiment: Antimicrobial activity against Histoplasma capsulatum isolates form AIDS patient with relapsed histoplasmosis by modified CLSI method; assay type: functional

In the case of `C[C@@H](c1ncncc1F)[C@](O)(Cn1cncn1)c1ccc(F)cc1F` [VORICONAZOLE], the MIC [1] is reported as 0.015 µg/mL (≈ 0.0429 µM) and the MIC [2] is reported as 0.03 µg/mL (≈ 0.0859 µM).
